Assay results as given in ChEMBL document CHEMBL1201862, “PubChem BioAssay data set” (2004).
The source made the active and inactive calls.

Tests used:
[1] = biological target: Nucleotide-binding oligomerization domain-containing protein 2 (Homo sapiens, UniProt Q9HC29); assay: inhibition of NOD2-driven NF-kB reporter – cell-based, luminescence, uHTS, HEK293 (AID 1566); format: functional
HEK293 [2] = assay: cells; format: functional, cell-based; conditions: Homo sapiens
HEK293 [3] = assay: NOD2 signaling inhibitors in MDP-stimulated cells, cell-based, uHTS, luminescence (AID 2001); format: functional; conditions: Homo sapiens
HEK293 [4] = assay: inhibition of NOD1-driven NF-kB reporter – cell-based, luminescence, uHTS, primary screen (AID 1578); format: functional; conditions: Homo sapiens
HEK293 [5] = assay: cells; format: functional, cell-based; conditions: Homo sapiens; remark: listed apart in the source
HEK293 [6] = assay: cells; format: functional, cell-based; conditions: Homo sapiens; remark: listed apart in the source
[7] = biological target: DNA dC->dU-editing enzyme APOBEC-3A (Homo sapiens, UniProt P31941); assay: Dose Response confirmation of small molecule APOBEC3A DNA Deaminase Inhibitors via a fluorescence-based single-stranded DNA deaminase assay. [Related pubchem assays (depositor defined):AID493011, AID493024]; format: functional
Chain of DNA dC->dU-editing enzyme APOBEC-3A (P31941 whole entry): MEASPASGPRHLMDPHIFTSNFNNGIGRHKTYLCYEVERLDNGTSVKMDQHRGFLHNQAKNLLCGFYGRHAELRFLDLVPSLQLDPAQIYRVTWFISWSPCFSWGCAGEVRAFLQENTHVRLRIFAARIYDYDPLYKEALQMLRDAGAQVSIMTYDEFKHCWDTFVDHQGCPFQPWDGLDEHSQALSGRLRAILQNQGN

[8] = biological target: DNA dC->dU-editing enzyme APOBEC-3G (Homo sapiens, UniProt Q9HC16); format: functional;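 further: Dose-response counterscreen measuring inhibition of APOBEC3G DNA deaminase activity, run while confirming APOBEC3A inhibitors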
Chain of DNA dC->dU-editing enzyme APOBEC-3G (Q9HC16 whole entry): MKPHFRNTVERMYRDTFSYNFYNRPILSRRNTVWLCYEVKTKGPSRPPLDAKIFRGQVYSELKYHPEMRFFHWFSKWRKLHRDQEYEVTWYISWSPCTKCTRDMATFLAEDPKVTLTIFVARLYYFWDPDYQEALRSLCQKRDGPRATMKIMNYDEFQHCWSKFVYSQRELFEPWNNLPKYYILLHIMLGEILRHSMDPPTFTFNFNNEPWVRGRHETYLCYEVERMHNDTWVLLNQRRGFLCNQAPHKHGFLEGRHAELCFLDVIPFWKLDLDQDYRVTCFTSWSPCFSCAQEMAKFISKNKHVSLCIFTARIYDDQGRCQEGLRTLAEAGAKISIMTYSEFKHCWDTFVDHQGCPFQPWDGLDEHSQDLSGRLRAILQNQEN

[9] = biological target: T1, Short transient receptor potential channel 4 (Mus musculus, UniProt Q9QUQ5); assay: block of DAMGO-driven TRPC4 calcium entry – cell-based, HEK293 TRPC4/mu-opioid, Fluo-4 calcium, dose response (AID 434942); format: functional;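 further: potency of inhibitors blocking the TRPC4 calcium response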
T1 sequence (Q9QUQ5 whole entry): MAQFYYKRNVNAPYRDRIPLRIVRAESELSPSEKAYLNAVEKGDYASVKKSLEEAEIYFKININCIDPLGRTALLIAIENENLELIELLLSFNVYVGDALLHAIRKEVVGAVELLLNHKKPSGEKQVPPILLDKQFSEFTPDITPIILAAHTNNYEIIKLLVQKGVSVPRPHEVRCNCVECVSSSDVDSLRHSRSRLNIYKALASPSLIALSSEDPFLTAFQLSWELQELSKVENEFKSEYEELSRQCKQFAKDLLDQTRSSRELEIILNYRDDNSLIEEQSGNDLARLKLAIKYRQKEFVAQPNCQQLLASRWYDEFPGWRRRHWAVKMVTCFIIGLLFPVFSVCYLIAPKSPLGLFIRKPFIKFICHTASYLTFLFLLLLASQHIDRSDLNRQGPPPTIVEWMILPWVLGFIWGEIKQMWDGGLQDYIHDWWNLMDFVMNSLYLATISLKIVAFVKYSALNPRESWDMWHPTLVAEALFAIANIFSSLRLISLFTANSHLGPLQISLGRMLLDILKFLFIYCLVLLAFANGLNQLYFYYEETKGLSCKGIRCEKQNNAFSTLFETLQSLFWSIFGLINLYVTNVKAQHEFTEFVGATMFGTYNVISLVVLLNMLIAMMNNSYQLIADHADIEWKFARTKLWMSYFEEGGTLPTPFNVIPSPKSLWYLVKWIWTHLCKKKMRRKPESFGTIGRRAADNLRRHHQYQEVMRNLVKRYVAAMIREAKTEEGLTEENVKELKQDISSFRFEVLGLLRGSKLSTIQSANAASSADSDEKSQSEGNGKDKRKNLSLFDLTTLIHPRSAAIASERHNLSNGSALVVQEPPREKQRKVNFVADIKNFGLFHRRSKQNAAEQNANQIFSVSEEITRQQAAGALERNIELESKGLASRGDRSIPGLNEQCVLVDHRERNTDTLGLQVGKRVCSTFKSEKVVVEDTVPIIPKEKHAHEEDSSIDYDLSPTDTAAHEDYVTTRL

Aminopeptidase N = biological target: T2, Aminopeptidase N (Plasmodium falciparum FcB1/Columbia, UniProt O96935); assay: malaria alanyl aminopeptidase activity blockers – biochemical, fluorogenic H-Leu-NHMec substrate, 1536-well (AID 1445); parameters: species or system Plasmodium falciparum 3D7, 3D7
T2 sequence (O96935 whole entry): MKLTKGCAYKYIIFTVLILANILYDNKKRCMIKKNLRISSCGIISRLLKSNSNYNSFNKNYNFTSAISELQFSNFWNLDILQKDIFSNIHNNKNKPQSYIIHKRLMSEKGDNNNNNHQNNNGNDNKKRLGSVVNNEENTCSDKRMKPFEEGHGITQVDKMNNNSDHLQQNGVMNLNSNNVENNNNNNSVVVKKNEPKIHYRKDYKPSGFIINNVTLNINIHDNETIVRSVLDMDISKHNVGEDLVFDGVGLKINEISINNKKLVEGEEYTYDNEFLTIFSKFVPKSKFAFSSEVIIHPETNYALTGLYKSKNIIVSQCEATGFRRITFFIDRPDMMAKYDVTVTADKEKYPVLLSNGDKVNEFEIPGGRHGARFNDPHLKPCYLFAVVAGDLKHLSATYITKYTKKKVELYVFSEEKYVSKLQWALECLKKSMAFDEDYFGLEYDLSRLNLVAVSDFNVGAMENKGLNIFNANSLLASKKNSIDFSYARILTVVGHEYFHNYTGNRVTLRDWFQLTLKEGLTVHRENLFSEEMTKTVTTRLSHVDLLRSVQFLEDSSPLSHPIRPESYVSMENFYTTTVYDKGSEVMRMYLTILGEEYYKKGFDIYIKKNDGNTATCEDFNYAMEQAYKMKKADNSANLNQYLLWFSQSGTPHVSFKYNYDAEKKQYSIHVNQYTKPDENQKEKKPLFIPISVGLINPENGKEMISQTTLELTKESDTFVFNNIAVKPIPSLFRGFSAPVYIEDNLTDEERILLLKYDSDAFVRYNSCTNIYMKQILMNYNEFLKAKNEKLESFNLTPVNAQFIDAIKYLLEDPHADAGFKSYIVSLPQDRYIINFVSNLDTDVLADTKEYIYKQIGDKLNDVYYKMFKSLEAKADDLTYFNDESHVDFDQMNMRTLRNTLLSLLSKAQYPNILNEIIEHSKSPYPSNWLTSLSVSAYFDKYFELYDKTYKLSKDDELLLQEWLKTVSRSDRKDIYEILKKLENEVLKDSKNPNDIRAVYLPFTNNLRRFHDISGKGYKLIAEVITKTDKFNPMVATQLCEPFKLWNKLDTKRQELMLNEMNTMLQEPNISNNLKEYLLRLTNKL

[10] = Trypanosoma cruzi growth suppression in host cells – NIH3T3 host cells, beta-gal luminescence, confirmation (AID 2044); format: functional, cell-based;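 further: intracellular parasites grown in NIH/3T3 mouse fibroblasts as host cells; luminescent beta-galactosidase reporter signal from transgenic T. cruzi replicating inside host cells; inhibitors lower the luminescence signal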
[11] = viability of uninfected HEp-2 cells – cell-based, HTS, cytotoxicity control for RSV inhibitor project, dose response (AID 2410); format: functional; conditions: human respiratory syncytial virus
[12] = NIH3T3 cell viability loss – ATP luminescence, mouse fibroblasts, counter-screen, dose response (AID 2010); format: functional, cell-based;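 further: cells exposed to compound for about 90 hours before reading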
[13] = biological target: T3, Carboxy-terminal domain RNA polymerase II polypeptide A small phosphatase 1 (Homo sapiens, UniProt Q9GZU7); assay: CTDSP1 inhibitors, concentration-response, biochemical, absorbance readout, ultra-high-throughput screen actives (AID 540297); format: functional
T3 sequence (Q9GZU7 whole entry): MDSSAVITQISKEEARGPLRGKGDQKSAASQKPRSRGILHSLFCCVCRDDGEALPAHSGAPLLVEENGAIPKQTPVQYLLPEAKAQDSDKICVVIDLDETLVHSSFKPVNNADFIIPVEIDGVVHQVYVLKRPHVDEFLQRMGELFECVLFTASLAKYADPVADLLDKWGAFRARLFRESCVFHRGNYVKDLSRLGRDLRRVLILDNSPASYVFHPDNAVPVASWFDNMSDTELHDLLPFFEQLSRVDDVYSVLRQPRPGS

[14] = viability of HCT116 lacking mutant beta-catenin – cell-based, human colon tumor, dose response (AID 1045); format: functional;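 further: HCT116 colon tumor cells with beta catenin knocked out; cells exposed to compound for 60 hours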
[15] = viability of PTEN-deleted HCT116 cells – cell-based, HCT116 PTEN knockout, dose response (AID 1047); format: functional;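 further: HCT116 colon tumor cells with PTEN knocked out; cells exposed to compound for 60 hours before readout; potency for loss of cell viability measured by luminescence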
Vero = assay: cells; format: functional; conditions: Chlorocebus sabaeus
[16] = biological target: T4, Polyadenylate-binding protein 1 (Homo sapiens, UniProt P11940); assay: MLLE domain peptide-binding blockers, IC50 – biochemical, fluorescence polarization, FITC-PAM2 peptide, dose response (AID 602259); format: functional; conditions: read-out: IC50_Mean
T4 sequence (P11940 whole entry, the tested form may be a part): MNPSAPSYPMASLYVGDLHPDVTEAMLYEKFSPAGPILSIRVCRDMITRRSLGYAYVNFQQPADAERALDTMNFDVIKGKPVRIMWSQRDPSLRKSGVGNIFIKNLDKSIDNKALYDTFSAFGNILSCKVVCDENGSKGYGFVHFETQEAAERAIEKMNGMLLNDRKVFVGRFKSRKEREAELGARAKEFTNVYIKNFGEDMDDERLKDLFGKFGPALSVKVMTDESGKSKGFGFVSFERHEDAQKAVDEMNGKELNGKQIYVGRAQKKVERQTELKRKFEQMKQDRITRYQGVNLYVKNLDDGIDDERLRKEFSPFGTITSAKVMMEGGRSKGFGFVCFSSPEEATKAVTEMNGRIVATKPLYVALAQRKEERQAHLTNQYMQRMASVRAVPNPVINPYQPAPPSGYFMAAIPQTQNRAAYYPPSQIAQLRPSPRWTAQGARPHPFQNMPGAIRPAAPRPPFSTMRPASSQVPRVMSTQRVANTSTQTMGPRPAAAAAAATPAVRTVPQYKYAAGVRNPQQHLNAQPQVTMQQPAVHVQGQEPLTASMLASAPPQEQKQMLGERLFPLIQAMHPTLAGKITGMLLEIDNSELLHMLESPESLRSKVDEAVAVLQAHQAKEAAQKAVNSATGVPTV

Leucine aminopeptidase = biological target: T5, Leucine aminopeptidase (Plasmodium falciparum 3D7, UniProt Q8IL11); assay: P. falciparum M17LAP inhibitors, primary screen, biochemical, fluorogenic H-Leu-NHMec substrate, 1536-well (AID 1619); format: functional
T5 sequence (Q8IL11 whole entry): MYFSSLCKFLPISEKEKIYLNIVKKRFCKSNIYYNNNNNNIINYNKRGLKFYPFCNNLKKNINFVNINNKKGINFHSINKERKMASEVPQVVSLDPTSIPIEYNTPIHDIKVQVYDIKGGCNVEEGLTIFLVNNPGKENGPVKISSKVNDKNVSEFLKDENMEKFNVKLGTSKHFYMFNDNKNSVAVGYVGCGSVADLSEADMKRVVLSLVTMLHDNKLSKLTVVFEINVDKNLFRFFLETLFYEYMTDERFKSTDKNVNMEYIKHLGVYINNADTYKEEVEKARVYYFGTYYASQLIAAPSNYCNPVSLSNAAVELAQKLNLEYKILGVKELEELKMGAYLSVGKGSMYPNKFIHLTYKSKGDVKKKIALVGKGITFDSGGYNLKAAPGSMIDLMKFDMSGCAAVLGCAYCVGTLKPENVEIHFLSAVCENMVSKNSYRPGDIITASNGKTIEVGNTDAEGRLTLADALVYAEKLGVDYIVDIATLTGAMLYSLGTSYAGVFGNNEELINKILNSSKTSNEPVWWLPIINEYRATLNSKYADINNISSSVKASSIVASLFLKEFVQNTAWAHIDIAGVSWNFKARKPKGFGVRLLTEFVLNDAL

[17] = biological target: T4, Polyadenylate-binding protein 1; assay: MLLE binding blockers, Cy5 peptide tracer – biochemical, fluorescence polarization, Cy5-PAM2 peptide, secondary, miRNA deadenylation inhibitor project, dose response (AID 602260); format: functional; conditions: read-out: IC50_Mean
HEK293 [18] = assay: EBV LMP1 TES2 canonical NF-kB signalling blockers – cell-based, HEK293, luciferase, cherry-pick, dose response (AID 588343); format: functional; conditions: Homo sapiens

Chain of Nucleotide-binding oligomerization domain-containing protein 2 (Q9HC29 whole entry, the tested form may be a part): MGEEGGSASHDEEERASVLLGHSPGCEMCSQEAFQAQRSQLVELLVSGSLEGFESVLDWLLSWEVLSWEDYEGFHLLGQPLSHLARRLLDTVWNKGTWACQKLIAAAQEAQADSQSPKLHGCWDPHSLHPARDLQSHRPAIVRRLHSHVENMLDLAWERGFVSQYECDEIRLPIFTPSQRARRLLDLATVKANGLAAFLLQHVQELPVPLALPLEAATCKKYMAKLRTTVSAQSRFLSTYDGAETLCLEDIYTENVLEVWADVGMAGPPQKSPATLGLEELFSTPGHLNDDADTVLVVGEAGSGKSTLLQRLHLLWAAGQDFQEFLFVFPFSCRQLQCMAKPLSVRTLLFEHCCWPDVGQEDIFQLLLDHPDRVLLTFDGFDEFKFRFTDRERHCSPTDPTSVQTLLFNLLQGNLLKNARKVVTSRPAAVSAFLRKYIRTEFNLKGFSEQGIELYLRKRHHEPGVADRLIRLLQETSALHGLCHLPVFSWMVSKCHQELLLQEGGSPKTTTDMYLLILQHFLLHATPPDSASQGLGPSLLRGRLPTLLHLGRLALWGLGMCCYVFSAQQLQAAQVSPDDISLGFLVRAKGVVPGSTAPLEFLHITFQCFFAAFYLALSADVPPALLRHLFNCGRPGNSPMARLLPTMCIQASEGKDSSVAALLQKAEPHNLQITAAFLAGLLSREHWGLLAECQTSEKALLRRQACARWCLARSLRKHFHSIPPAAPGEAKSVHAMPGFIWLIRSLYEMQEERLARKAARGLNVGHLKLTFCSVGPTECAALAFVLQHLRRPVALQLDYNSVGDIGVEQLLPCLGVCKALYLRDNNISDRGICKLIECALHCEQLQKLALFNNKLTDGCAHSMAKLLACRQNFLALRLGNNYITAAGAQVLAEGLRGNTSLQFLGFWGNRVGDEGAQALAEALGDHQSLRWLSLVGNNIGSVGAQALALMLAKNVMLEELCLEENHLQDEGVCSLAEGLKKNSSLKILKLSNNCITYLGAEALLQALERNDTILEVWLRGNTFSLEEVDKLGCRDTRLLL

With `CC(=O)c1cccc(NS(=O)(=O)c2ccc(NC(=O)N3CCCCC3)cc2)c1` the EC50 [1] was 15.6 µM (active), the IC50 (HEK293 [2]) was > 20 µM (inactive) and the IC50 (HEK293 [3]) was 11.3 µM (inactive). For the same compound, the EC50 (HEK293 [4]) was 3.33 µM (active), the IC50 (HEK293 [5]) was 14.3 µM (active) and the IC50 (HEK293 [6]) was > 20 µM (inactive).
For `CCN1CCN(c2ccc(S(=O)(=O)N3CCCCC3)cc2NC(=O)Cc2ccccc2)CC1`, the IC50 [7] was 3.97 µM (active) and the IC50 [8] was 5.57 µM (active).
With `CSC1=NC2=C(CCCC2)C2(CCCCC2)N1` the EC50 [9] was 5.96 µM (active).
In the case of `O=C(O)c1ccc2c(c1)C1C=CCC1C(c1cc3c(cc1Br)OCO3)N2` (centres undefined), the IC50 (Aminopeptidase N) is reported as 11 µM (active).
For `Cc1cccc(N2CCN(C(=O)CCCCCn3c(=S)[nH]c4ccc(N5CCOCC5)cc4c3=O)CC2)c1C`, the EC50 [1] was 11.9 µM (active), the EC50 [10] was 1.56 µM (active) and the CC50 [11] was 26.4 µM (active). For the same compound, the IC50 (HEK293 [2]) was > 20 µM (inactive), the IC50 (HEK293 [3]) was 11.9 µM (inactive) and the EC50 (HEK293 [4]) was 15.1 µM (active). For the same compound, the IC50 (HEK293 [5]) was > 20 µM (inactive), the IC50 (HEK293 [6]) was > 20 µM (inactive) and the EC50 [12] was > 60 µM (not active).
In the case of `N#C/C(=C/c1ccc(OCc2ccc(C(=O)O)cc2)cc1)C(=O)Nc1ccccc1`, the IC50 [7] is reported as 1.75 µM (active), the IC50 [8] is reported as 2.36 µM (active) and the IC50 [13] is reported as 5.32 µM (active).
With `O=C(CN1CCCCC1)N=Nc1c(O)[nH]c2ccccc12` the EC50 [9] was 2.99 µM (active).
In the case of `Cn1cccc1/C=C1\SC(=S)N(NC(=O)c2ccccc2O)C1=O`, the IC50 (Aminopeptidase N) is reported as 44.6 µM (active).
In the case of `O=[N+]([O-])CC(c1ccc(Br)cc1)c1c(O)n[nH]c1-c1ccccc1O` (centres undefined), the EC50 [14] is reported as 6.72 µM (active), the CC50 [11] is reported as 10.3 µM (active) and the EC50 [15] is reported as 9 µM (active). The CC50 (Vero) was 14.2 µM (active).
For `Cc1ccc(S(=O)(=O)CCSc2cccc(C(=O)Nc3ccccc3C(=O)O)c2)cc1`, the IC50 [16] was > 66 µM (inactive), the IC50 (Aminopeptidase N) was 34.3 µM (active) and the CC50 [11] was 13.5 µM (active). For the same compound, the IC50 (Leucine aminopeptidase) was 9.59 µM (active) and the IC50 [17] was > 66 µM (inactive).
With `CCn1c2ccccc2c2cc(/C=C(/C#N)C(N)=S)ccc21` the AC50 (HEK293 [18]) was 1.21 µM (active).
